Results as given in EPA's ToxValDB 9.5 (doi:10.2903/j.efsa.2014.3815).

Key:
Apis mellifera = conditions: acute; duration: 48 hours; dermal; mortality
Canidae = conditions: subchronic; duration: 90 days; oral; Dog Other; histopathology: nonneoplastic
Cyprinus carpio = conditions: acute; duration: 96 hours; mortality
Daphnia magna = conditions: chronic/long-term; duration: 21 days; reproduction
Landoltia sp. = conditions: acute; duration: 14 days; frond number
Lepomis macrochirus = conditions: acute; duration: 96 hours; mortality
Macromiidae = conditions: acute; duration: 72 hours; biomass
Oryctolagus sp. = conditions: developmental; development
Pimephales promelas = conditions: chronic/long-term; duration: 37 days; growth
Pleurozium sp. = conditions: chronic/long-term; duration: 120 hours; growth
Rattus norvegicus = conditions: for LD50: acute, mortality
Tagia sp. = conditions: acute; duration: 14 days; mortality
Poecilus cupreus = experiment: LR50; higher = less toxic; conditions: acute; mortality

Question: How did the LD50 (Anas platyrhynchos; acute, oral, unspecified, mortality) turn out when COc1nc(C)nc(NC(=O)NS(=O)(=O)c2ccccc2CCC(F)(F)F)n1 [Prosulfuron] was run?
Answer: 1300 mg/kg

Question: And the NOEL (Anas platyrhynchos; reproductive)?
Answer: 2.95 mg/kg-day

Question: What about the LD50 (Apis mellifera) of the same molecule?
Answer: > 100 µg/piece

Question: What about the NOAEL (Canidae) of the same molecule?
Answer: 6 mg/kg-day

Question: And the LC50 (Cyprinus carpio)?
Answer: > 100 µg/mL

Question: And the NOEC (Daphnia magna)?
Answer: 148 mg/L

Question: What about the NOEC (Landoltia sp.) of the same molecule?
Answer: 0.000827 mg/L

Question: And the LC50 (Lepomis macrochirus)?
Answer: > 100 µg/mL

Question: What about the NOEC (Macromiidae) of the same molecule?
Answer: 0.831 mg/L

Question: What about the LC50 (Oncorhynchus mykiss; acute, duration: 96 hours, mortality) of the same molecule?
Answer: > 160 µg/mL

Question: What about the NOEC (Oncorhynchus mykiss; chronic/long-term, duration: 21 days, growth) of the same molecule?
Answer: 5.8 mg/L

Question: And the NOAEL (Oryctolagus sp.)?
Answer: 10 mg/kg-day

Question: And the NOEC (Pimephales promelas)?
Answer: 150 mg/L

Question: And the NOEC (Pleurozium sp.)?
Answer: 0.00278 mg/L

Question: What about the LD50 (Rattus norvegicus; M/F) of the same molecule?
Answer: 986 mg/kg

Question: What about the LD50 (Rattus norvegicus) of the same molecule?
Answer: > 755 mg/kg

Question: And the NOAEL (Rattus norvegicus; chronic)?
Answer: 12 mg/kg-day

Question: And the NOAEL (Rattus norvegicus; chronic, duration: 18 months, histopathology: nonneoplastic)?
Answer: 1.7 mg/kg-day

Question: What about the NOAEL (Rattus norvegicus; subchronic, duration: 90 days) of the same molecule?
Answer: 3 mg/kg-day

Question: And the LC50 (Tagia sp.)?
Answer: > 1000 mg/kg

Question: And the LR50 (Poecilus cupreus)?
Answer: > 15 g/ha
